Where two headings read alike, the source gives them in different places. Non-standard residues stand in square brackets, D forms with d. Residues, ends and D or L forms follow the SMILES beside them. *: point of attachment. {Cy5} = Cy5 fluorescent dye; Dolaproine = CO[C@@H]([C@@H]1CCCN1)[C@@H](C)C(=O)O; Dil = CC[C@H](C)[C@H](NC)[C@@H](CC(=O)O)OC; X1 = C[C@@H](N*)[C@@H](O)c1ccccc1; NMeV = CN[C@H](C(=O)O)C(C)C

Series [1] relates to U118MG glioma cells subcutaneous tumor. As to the kind of experiment: In vivo anti-tumor activity, tumor volume (Experimental Example 3). Further details: species or system NOD-SCID mice. The protocol:
In this experimental example, the in vivo anti-tumor activity of the resulting conjugate 20 in mice was investigated.
The mice in this experiment were purchased from SPF Co., Ltd, the germline was NOD-SCID, the grade was SPF, male, 6-8 weeks old; U118MG glioma cells were purchased from Jennio.
The above culture medium containing U118MG cells was inoculated on subcutaneous site of the right forelimb of mice, and the injection volume was 100 μL. Each mouse was inoculated with 1×10^7 U118MG glioma cells.
The above resulting conjugate AP2 was formulated into 1.94 mg/mL of solution with PBS. Conjugate 20 was formulated into 0.625 mg/mL, 1.25 mg/mL and 2.06 mg/mL of solution with PBS, respectively (all calculated based on the amount of oligonucleotide). […]
For test group 3d, the above conjugate 20 solution with a concentration of 0.625 mg/mL was administered by tail intravenous injection with a single administration volume of 10 μL/g, a single administration dosage of […] (calculated based on the mass of oligonucleotide), wherein the dosage of MMAE contained was equivalent to 0.3 mg/kg. […]
Long diameter and short diameter of the tumors were measured by in vitro measurement method. The tumor volume was calculated according to the formula ½(long diameter×short diameter^2). […]

The test system of series [2] is U118MG subcutaneous tumor. In words: In vivo activity of long-interval administration against U118MG subcutaneous tumor model mice (Experimental Example 7). The arrangement: species or system NOD-SCID mice. The following applies: MMAE only, 0.1 mg/kg and 0.3 mg/kg subcutaneous on D8, D11, D15, D29, D32, D36. The protocol: According to the method of experimental example 2, 42 mice inoculated with U118MG subcutaneous tumor were obtained, and the mice were kept after injection.
MMAE was dissolved into solutions with a concentration of 0.03 mg/mL and 0.01 mg/mL with 10% DMSO+90% serum-free DMEM medium (volume ratio); conjugate 21 was dissolved into a solution with a concentration of 0.5 mg/mL and 0.165 mg/mL (calculated according to aptamer); and comparative conjugate 25 was dissolved into solutions with a concentration of 0.5 mg/mL and 0.165 mg/mL (calculated according to aptamer). […] The mice were weighed before administration, and the administration volume was calculated by weight.
For blank control group, each mouse was administered with DMEM medium with a single administration volume of 10 μL/g mouse body weight; For test group 7a, each mouse was administered with MMAE with a concentration of 0.01 mg/ml with a single administration volume of 10 μL/g mouse body weight. It was calculated that a single administration dosage was 0.1 mg/kg.
For test group 7b, each mouse was administered with conjugate 21 with a concentration of 0.165 mg/ml with a single administration volume of 10 μL/g mouse body weight. It was calculated that a single administration dosage was 1.65 mg/kg (the corresponding MMAE dosage was 0.1 mg/kg). […]

Series [3] concerns U118MG orthotopic tumor (brain glioma). The following applies: mouse, in vivo, iv, 3 mg/kg.
Protocol: (§1) U118MG human glioma cells (purchased from Guangzhou Jennio Biotech Co., Ltd) were cultured in DMEM complete medium (MACGENE company, Cat No. CM15019) supplemented with 10% fetal bovine serum (FBS, RMBIO company) at 37° C. in an incubator containing 5% CO2/95% air.
(§2) The cells were digested with 0.25% pancreatic enzyme and collected. The supernatant was aspirated, and the cells were resuspended in DMEM medium supplemented with 10% FBS to formulate into cell culture medium with a concentration of 4×10^7 cells/mL.
(§3) Experimental animals were 6 NOD-SCID mice, male, 12 weeks old (purchased from SPF (Beijing) Biotechnology Co., LTD.). The above cell culture medium was inoculated into NOD-SCID mice. […]
(§4) The administration dosage of all animals was calculated based on their body weights, the administration volume was all 10 μL/g, the administration dosage was 3 mg/kg per animal (calculated based on the amount of aptamer), 2 mice were administrated in each group and designated as test group 4a and control group 4b, respectively. […]
(§5) 24 h after administration, one mouse in each group was respectively killed and brain tissue was taken, and the remaining mice were killed at 48 h after administration and brain tissues were taken. The brain tissues of mice were taken for fluorescence imaging in IVIS Lumina Series III.
The test system is the same in series [4]. In words: In vivo distribution in U118MG cell orthotopic tumor model mice, brain fluorescence imaging (Experimental Example 4). The following applies: 24 h and 48 h after administration; 3 mg/kg tail intravenous injection.
Protocol: as §1, §2, §3, §4, §5
For series [5], the system named is A549 subcutaneous tumor (human lung adenocarcinoma cells). As to the kind of experiment: In vivo activity against A549 subcutaneous tumor model mice (Experimental Example 9). The following applies: administered D8, D12, D15, D19 (MMAE equivalent 0.3 mg/kg) and D46, D50, D54 (0.6 mg/kg); versus 9b (MMAE) and 9e (comparative conjugate 24). The protocol: According to the method of experimental example 2, 30 mice inoculated with A549 subcutaneous tumors were obtained, and the mice were kept after injection.
Conjugate 20 and conjugate 21 were dissolved into conjugate solutions with a concentration of 1 mg/mL (calculated according to aptamer) with serum-free DMEM medium. Comparative conjugate 24 were dissolved into a conjugate solution with a concentration of 0.8 mg/mL (calculated according to aptamer). MMAE was dissolved into a solution with a concentration of 0.06 mg/mL with 10% DMSO+90% serum-free DMEM medium (volume ratio).
7 days after the inoculation of A549 human lung cancer cells, all mice were grouped, with 6 mice in each group, and each mouse was administrated. The day of administration was designated as D8. The mice were weighed before administration, and the administration volume was calculated by the mouse body weight. […]
For blank control group 9a, each mouse was administered with DMEM with a single administration volume of 5 μL/g mouse body weight; For control group 9b, each mouse was administered with MMAE with a single administration volume of 5 μL/g mouse body weight. It was calculated that a single administration dosage was 0.3 mg/kg; […]
Tumor volumes were measured on D1, D9, D16, D19, D22, D26, D30, D36, D40, D43, D47, D50, D54, and D57. The blank control group was measured on D50, and then the experiment was terminated. […]

`CC[C@H](C)[C@@H]([C@@H](CC(=O)N1CCC[C@H]1[C@H](OC)[C@@H](C)C(=O)N[C@H](C)[C@@H](O)c1ccccc1)OC)N(C)C(=O)[C@@H](NC(=O)[C@@H](NC)C(C)C)C(C)C` [MMAE, Monomethyl auristatin E, reference compound] (H-[NMeV]V[Dil][Dolaproine]-X1): the “increase rate of tumor volume” value in series [1] (control group 3c, 0.3 mg/kg tail intravenous injection on D8, D12, D16, D20) is recorded as “increase rate of tumor volume was decreased”. Moreover, the “increase rates of tumor volume” value in series [2] was “slightly decreased”.

For “CY5-CmUmGmGmAmGmUmUmCmAmGmAmCmGmUmGmUmUmGmCmUmCmUmUmCmCmGmAmUmCmUmCm (DNA CUGGAGUUCAGACGUGUUGCUCUUCCGAUCUC; all 2'-O-methyl, 5' {Cy5}, backbone not given here) [AP2]”, the “tumor volume over time” value in series [1] (control group 3b, 15.5 mg/kg tail intravenous injection on D8, D12, D16, D20) was “increased rapidly”. Besides, the “fluorescence signal in brain tissue” value in series [3] is given as “strong fluorescence signals at the inoculation tumor location”. For the compound “CY5-UfCfUfAUfGGCfUfGCfCfGAUfCfUfGGUfCfUfCfCfAUfGUfACfGUf (UCUAUGGCUGCCGAUCUGGUCUCCAUGUACGU; 2'-fluoro at CU, RNA at AG, 5' {Cy5}, backbone not given here) [Comparative AP19]”, the “fluorescence signal in brain tissue” value in series [4] is listed as “no fluorescence signal at all in the brain”. Regarding “MMAE-CmUmGmGmAmGmUmUmCmAmGmAmCmGmUmGmUmUmGmCmUmCmUmUmCmCmGmAmUmCmUmCm (DNA CUGGAGUUCAGACGUGUUGCUCUUCCGAUCUC; all 2'-O-methyl, backbone not given here; MMAE drug conjugated at 5' end via linker, further chemistry not fully specified) [Conjugate 20, dye group of AP2 replaced with MMAE; linking group 2-(phosphate ester group-(CH2)6—S—)-MC-Val-Cit-PAB]”, in series [5], the “tumor volumes at each time period” value is “smaller than those of the control groups 9b and 9e”. Same read-out and setting: under “MMAE-CmUmGmGmAmGmUmUmCmAmGmAmCmGmUmUmGmUmGmCmUmCmUmUm (CUGGAGUUCAGACGUUGUGCUCUU; all 2'-O-methyl, backbone not given here; MMAE drug conjugated at 5' end via linker, further chemistry not fully specified) [Conjugate 21]” stands “smaller than those of the control groups 9b and 9e”.

(Values after patent publication US20250332268A1, “CONJUGATE AND COMPOSITION AS WELL AS PREPARATION METHOD THEREFOR AND USE THEREOF” (priority 2022, published 2025).)
